How the values were obtained:
[1] = system: Staphylococcus aureus Newman; assay: Staphylococcus infection in mice (body weight, CFU recovered from kidney); format: in vivo; details: for Ability of mice to clear an infection by Staphylococcus aureus Newman; bacteria quantified as CFU recovered from a standard sample of kidney: FIG. 6
[2] = system: Salmonella typhimurium phagocytosed by J774 murine cells; assay: Intracellular killing of S. Typhimurium by mouse macrophage cellline J 774 A.1 (surviving CFU); format: cell-based; details: FIG. 4; compared with azithromycin
Description: Substances may act directly on bacteria, or they may act to promote the killing of the bacteria by phagocytes. To measure this effect, cultures murine macrophages are incubated with a test bacteria and the number of bacteria surviving are counted in terms of the viable colony forming units (CFU). The method for determining the rate of phagocytosis is as follows:
Intracellular killing of S. Typhimurium by mouse macrophage cellline J 774 A.1 • seed a monolayer of cells in 200 μl Media into the wells of a 96 well plates • incubate O/N 37° C. • remove medium and add fresh medium • add Bacteria (Salmonella typhimurium) e.g. 5 μl of 1:100 diluted O/N culture (MOI=10) (=10^8 cfu/ml) • centrifuge 10 min 800 g (2000 rpm) • incubate 20-30 minutes at 37° C. (phagocytosis) • remove media • wash 1-2× with PBS • add medium with 100 μg/ml Gentamicin, stock: 10 mg/ml (=1:100) • incubate 45′ at 37° C. • wash 2× with PBS • add fresh medium (200 μl/well) • add compounds to test • incubate 2-3 hours at 37° C. • remove medium • lyse cells with water: add 200 μl H2O incubate 10′, push a few times through 27 gauge needle using a 1 ml syringe • plate […] 1:10 dilution onto LB-agar plates (=1:100 dil)
Overnight culture of Salmonella thyphimurium=˜[…]
Overnight culture of Staphylococcus carnosus=˜5×10^9 cfu/ml MOI=50 (=5 μl of 1:10 dil. O/N culture)
MOI=Multiplicity of Infection […]

Staphylococcus carnosus = assay: Inhibition of growth of Staphylococcus carnosus (optical density of culture); details: after 9-20 h, No compound 0.887
Description: (§1) Activity of substances in the inhibition of growth of bacteria. Bacteria including the species Escherichia coli, Bacillus pumilus, Salmonella sp., Micrococcus luteus and Staphylococcus carnosus are cultured in appropriate media (Luria broth for all except S. canosus). Overnight cultures are mixed with fresh medium to reach an optical density at 600 nM of ca. 0.1 AU. These cultures are mixed with solutions of substances to be tested at concentrations ranging from 100 μM to 0.05 μM in a microtitre plate. The growth of the culture is monitored by measuring the optical density at various times after the addition of the inhibitor. Reduction in the rate of increase in optical density corresponds to an inhibition of bacterial growth.

Salmonella typhimurium = assay: Inhibition of growth of Salmonella typhimurium (optical density of culture); details: after 9-20 h, No compound 0.943
Description: as §1

[3] = system: mice treated with dextran sulfate (colitis); assay: Dextran sulfate colitis in mice (inflammatory bowel disease model); format: in vivo, mouse (C57 BLK6 or BALBc); details: N=8; for Body weight and clinical score of BALBc mice at day 9 after commencing 2.5% DSS in water: FIG. 18
Description: The potential efficacy of a Compound for Inflammatory bowel disease may be modeled as follows. C57 BLK6 or BALBc mice are provided with drinking water containing 2.5% or 2.8% dextran sulfate. Animals are weighed and observed for signs of intestinal disturbance daily. Signs include diarrhea or occult blood. Compound is formulated by mixing with a solution of 0.1 up to 1% citric acid depending on concentration. Compound is provided by oral gavage daily.

SMILES	Ability of mice to clear an infection by Staphylococcus aureus Newman; bacteria quantified as CFU recovered from a standard sample of kidney [1]	Absorbance of culture medium at 600 nm (Staphylococcus carnosus; Conc. 0.8 μM)	Absorbance of culture medium at 600 nm (Staphylococcus carnosus; Conc. 2 μM)	Absorbance of culture medium at 600 nm (Staphylococcus carnosus; Conc. 3 μM)	Absorbance of culture medium at 600 nm (Staphylococcus carnosus; Conc. 6 μM)	Absorbance of culture medium at 600 nm (Staphylococcus carnosus; Conc. 13 μM)	Absorbance of culture medium at 600 nm (Staphylococcus carnosus; Conc. 25 μM)	Absorbance of culture medium at 600 nm (Staphylococcus carnosus; Conc. 50 μM)	Absorbance of culture medium at 600 nm (Staphylococcus carnosus; Conc. 100 μM)	Absorbance of culture medium at 600 nm (Salmonella typhimurium; Conc. 0.8 μM)	Absorbance of culture medium at 600 nm (Salmonella typhimurium; Conc. 2 μM)	Absorbance of culture medium at 600 nm (Salmonella typhimurium; Conc. 3 μM)	Absorbance of culture medium at 600 nm (Salmonella typhimurium; Conc. 6 μM)	Absorbance of culture medium at 600 nm (Salmonella typhimurium; Conc. 13 μM)	Absorbance of culture medium at 600 nm (Salmonella typhimurium; Conc. 25 μM)	Absorbance of culture medium at 600 nm (Salmonella typhimurium; Conc. 50 μM)	Absorbance of culture medium at 600 nm (Salmonella typhimurium; Conc. 100 μM)	Body weight and clinical score of BALBc mice at day 9 after commencing 2.5% DSS in water [3]	other results
CC[C@H]1OC(=O)[C@H](C)[C@@H](O[C@H]2C[C@@](C)(OC)[C@@H](O)[C@H](C)O2)[C@H](C)[C@@H](O[C@@H]2O[C@H](C)C[C@H](N(C)C)[C@H]2O)[C@](C)(O)C[C@@H](C)CN(C)[C@H](C)[C@@H](O)[C@]1(C)O [Azithromycin, reference compound]	decreases recovered bacteria in a dose responsive manner																		
CC[C@H]1OC(=O)[C@H](C)[C@@H](O[C@H]2C[C@@](C)(OC)[C@@H](O)[C@H](C)O2)[C@H](C)[C@@H](O[C@@H]2O[C@H](C)CC(N(C)C)[C@H]2O[N+](=O)[O-])[C@](C)(O)C[C@@H](C)CN(C)[C@H](C)[C@@H](OC(C)=O)[C@]1(C)O (stereo partly shown) [Compound E-2]	decreases recovered bacteria in a dose responsive manner	0.760	0.766	0815	0.626	0.542	0.456	0.425	0.395	0.452	0.441	0.410	0.382	0.621	0.314	0.168	0.251		Killing of phagocytosed Salmonella typhimurium by murine macrophages [2]: stimulates the killing of bacterial cells by macrophages; Body weight of BALBc mice at day 7 after commencing 2.5% DSS in water ([3]; FIG. 17): protects against weight loss
CCCCCCCCCCN(C)C1C[C@@H](C)O[C@@H](O[C@@H]2[C@@H](C)[C@H](O[C@H]3C[C@@](C)(OC)[C@@H](O)[C@H](C)O3)[C@@H](C)C(=O)O[C@H](CC)[C@@](C)(O)[C@H](O)[C@@H](C)N(C)C[C@H](C)C[C@@]2(C)O)[C@@H]1O (stereo partly shown) [Compound E-3]																		stimulate inflammation	
CCC(=O)O[C@@H]1[C@@H](C)N(C)C[C@H](C)C[C@@](C)(O)[C@H](O[C@@H]2O[C@H](C)C[C@H](N(C)C)[C@H]2O[N+](=O)[O-])[C@@H](C)[C@H](O[C@H]2C[C@@](C)(OC)[C@@H](O)[C@H](C)O2)[C@@H](C)C(=O)O[C@H](CC)[C@@]1(C)O [Compound E-5]	decreases recovered bacteria in a dose responsive manner	0.819	0.726	0.805	0.525	0.452	0.403	0.347	0.302	0.574	0.568	0.511	0.478	0.437	0.396	0.395	0.390		Response of mice to an infection by Staphylococcus (recovery of weight) ([1]; FIG. 5): faster recovery of weight due to faster clearance of bacteria
CC[C@H]1OC(=O)[C@H](C)[C@@H](O[C@H]2C[C@@](C)(OC)[C@@H](O)[C@H](C)O2)[C@H](C)[C@@H](O[C@@H]2O[C@H](C)CC(N(C)C)[C@H]2OC(C)=O)[C@](C)(O)C[C@@H](C)CN(C)[C@H](C)[C@@H](O[N+](=O)[O-])[C@]1(C)O (stereo partly shown) [Compound E-9]		0.765	0.737	0.830	0.752	0.677	0.426	0.522	0.545	0.300	0.272	0.327	0.348	0.382	0.395	0.319	0.221		
CCC(=O)O[C@@H]1C(N(C)C)C[C@@H](C)O[C@H]1O[C@@H]1[C@@H](C)[C@H](O[C@H]2C[C@@](C)(OC)[C@@H](OC(=O)CC)[C@H](C)O2)[C@@H](C)C(=O)O[C@H](CC)[C@@](C)(O)[C@H](OC(=O)CC)[C@@H](C)N(C)C[C@H](C)C[C@@]1(C)OC(=O)CC (stereo partly shown) [Compound E-51]																			Body weight and clinical score of BALBc mice at day 7 after commencing 2.5% DSS in water ([3]; FIG. 19, weight greater than Vehicle): protect against inflammation
CCCC(=O)O[C@@H]1C(N(C)C)C[C@@H](C)O[C@H]1O[C@@H]1[C@@H](C)[C@]2(O)O[C@@]1(C)C[C@@H](C)CN(C)[C@H](C)[C@@H](O)[C@](C)(O)[C@@H](CC)OC(=O)[C@@H]2C (stereo partly shown) [Compound E-238]																		stimulate inflammation	
CCCC(=O)O[C@@H]1[C@@H](C)N(C)C[C@H](C)C[C@@](C)(O)[C@H](O[C@@H]2O[C@H](C)CC(N(C)C)[C@H]2O)[C@@H](C)[C@H](O[C@H]2C[C@@](C)(OC)[C@@H](OC(=O)CCC)[C@H](C)O2)[C@@H](C)C(=O)O[C@H](CC)[C@@]1(C)O (stereo partly shown) [Compound E-553]																		stimulate inflammation	
